{
  "source": "patent US9452977B2",
  "about": "“Cyclopentylacrylamide derivative” (KYORIN PHARMACEUTICAL CO., LTD., priority 2008, dated 2016)",
  "target": "T1, human hepatic GK (Homo sapiens, UniProt P35557)",
  "T1 construct": "His6 (C); made in house; host or cells: E. coli",
  "T1 sequence (P35557 1-466 isoform P35557-2)": "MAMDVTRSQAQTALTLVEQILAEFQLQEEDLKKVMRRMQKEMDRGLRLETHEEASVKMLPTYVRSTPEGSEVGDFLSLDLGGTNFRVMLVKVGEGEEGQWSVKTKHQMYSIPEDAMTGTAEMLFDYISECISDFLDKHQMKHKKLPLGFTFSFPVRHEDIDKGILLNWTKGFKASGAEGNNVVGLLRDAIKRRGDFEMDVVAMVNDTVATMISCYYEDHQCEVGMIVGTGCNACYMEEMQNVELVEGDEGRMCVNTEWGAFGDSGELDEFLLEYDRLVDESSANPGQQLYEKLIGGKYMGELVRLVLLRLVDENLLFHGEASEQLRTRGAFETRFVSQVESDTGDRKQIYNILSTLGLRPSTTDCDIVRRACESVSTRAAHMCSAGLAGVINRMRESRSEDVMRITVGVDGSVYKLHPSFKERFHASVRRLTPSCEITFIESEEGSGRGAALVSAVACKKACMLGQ",
  "test": "GK activity measurement (G6PDH-coupled NADH production)",
  "assay_type": "biochemical",
  "settings": "GK activation; 5 mM D-glucose",
  "procedure": "The GK activity was determined not by direct measurement of the amount of glucose-6-phosphate produced by the enzyme reaction but by measurement of the amount of NADH produced by a […] reaction.\n(Preparation of Recombinant GK)\nCloning of Human Hepatic GK and Human Pancreas GK and Acquisition of Recombinant Proteins\nBased on a human hepatic GK sequence available from GeneBank (Accession Number: NM_033507) and a human pancreas GK sequence (Accession Number: NM_000162), PCR cloning was performed using Pyrobest DNA Polymerase (product of Takara Bio Inc.) with human hepatic cDNA (product of Clontech Laboratories, Inc.) and human pancreas cDNA (product of Clontech Laboratories, Inc.) used as templates. […]\nThe test compound was dissolved in DMSO in advance, and 2 μL of the prepared solution was added to 20 μL of a solution containing the HEPES buffer solution (pH 7.1), KCl, MgCl2, D-glucose, ATP, NAD, and dithiothreitol. […] The GK was added such that an increase in absorbance per minute in the presence of 5% DMSO was between 0.002 to 0.003. After the reaction was initiated, the increase in absorbance at 340 nm was measured for 15 minutes using a SPECTRAmax 190 microplate spectrophotometer (product of Molecular Devices Corporation), and the activity was evaluated using the increase in the first 10 minutes.",
  "data": [
    {"molecule": "CS(=O)(=O)c1ccc(/C(=C\\[C@H]2C[C@@H](F)[C@@H](F)C2)C(=O)Nc2nccs2)cc1", "note": "[Compound 1A, (E)-3-[(1α,3α,4α)-3,4-difluorocyclopentyl]-2-[4-(methylsulfonyl)phenyl]-N-(thiazol-2-yl)acrylamide]", "values": [
      {"measurement": "EC50", "value": "≤ 1", "unit": "µM"}
    ]}
  ]
}
